Assay results taken from ChEMBL document CHEMBL4373744, “Modifying the lipophilic part of phenylthiazole antibiotics to control their drug-likeness” (Eur J Med Chem, 2020).
Calls of active or inactive are those of the source.

How the values were obtained:
[1] = test system: Staphylococcus aureus; test: Antimicrobial activity against vancomycin-resistant Staphylococcus aureus 10 by broth liquid microdilution method; format: functional
[2] = test system: Staphylococcus aureus; test: Antimicrobial activity against vancomycin-resistant Staphylococcus aureus 12 by broth liquid microdilution method; format: functional
[3] = test system: Staphylococcus epidermidis; test: Antimicrobial activity against methicillin-resistant Staphylococcus epidermidis NRS101 by broth liquid microdilution method; format: functional
[4] = test system: Enterococcus faecium; test: Antimicrobial activity against vancomycin-resistant Enterococcus faecium ATCC 700221 by broth liquid microdilution method; format: functional
[5] = test system: Listeria monocytogenes; test: Antimicrobial activity against Listeria monocytogenes ATCC 19111 by broth liquid microdilution method; format: functional
[6] = test system: Streptococcus pneumoniae; test: Antimicrobial activity against cephalosporin-resistant Streptococcus pneumoniae ATCC 51916 by broth liquid microdilution method; format: functional
[7] = test system: Streptococcus pneumoniae; test: Antimicrobial activity against methicillin-resistant Streptococcus pneumoniae ATCC 700677 by broth liquid microdilution method; format: functional
[8] = test system: Staphylococcus aureus; test: Bactericidal activity against methicillin-resistant Staphylococcus aureus USA400 assessed as reduction in number of colony forming units at 5 times MIC incubated for 10 hrs by aliquots transfer to tryptic soy agar and grown for 18 to 20 hrs by Time-kill assay relative to control; format: functional; parameters: scale not given: the % may be the effect or the level left
[9] = test system: Staphylococcus aureus; test: Antibiofilm activity against methicillin-resistant Staphylococcus aureus USA300 at 4 times MIC incubated for 24 hrs by crystal violet staining based assay relative to control; format: functional
[10] = test system: Staphylococcus aureus; test: Antibiofilm activity against methicillin-resistant Staphylococcus aureus USA300 at 2 times MIC incubated for 24 hrs by crystal violet staining based assay relative to control; format: functional
[11] = test system: Staphylococcus aureus; test: Antibiofilm activity against methicillin-resistant Staphylococcus aureus USA300 incubated for 24 hrs by crystal violet staining based assay; format: functional, organism-based
[12] = test system: Staphylococcus aureus; test: Antimicrobial activity against methicillin-resistant Staphylococcus aureus USA400 infected in mouse J774 cells assessed as reduction in […] bacterial count at 2 times MIC incubated for 24 hrs relative to control; format: functional; parameters: scale not given: the % may be the effect or the level left
[13] = test system: Staphylococcus aureus; test: Antimicrobial activity against methicillin-resistant Staphylococcus aureus USA400 infected in mouse J774 cells assessed as reduction in […] bacterial count at 4 times MIC incubated for 24 hrs relative to control; format: functional; parameters: scale not given: the % may be the effect or the level left
[14] = test system: J774; test: Cytotoxicity against mouse J774 cells assessed as reduction in cell viability at 4 to 8 ug/ml incubated for 24 hrs by MTS assay; format: cell-based; conditions: j774, 24 h
[15] = test system: Staphylococcus aureus; test: microbe, parasite or virus in culture; conditions: ATCC 6538
Description: Antimicrobial activity against methicillin-sensitive Staphylococcus aureus ATCC 6538 by broth liquid microdilution method

[16] = test system: Staphylococcus aureus; test: microbe, parasite or virus in culture; conditions: NRS 107
Description: Antimicrobial activity against methicillin-sensitive Staphylococcus aureus NRS 107 by broth liquid microdilution method

[17] = test system: Staphylococcus aureus; test: microbe, parasite or virus in culture; conditions: NRS119
Description: Antimicrobial activity against methicillin-resistant Staphylococcus aureus NRS119 by broth liquid microdilution method

[18] = test system: Staphylococcus aureus; test: microbe, parasite or virus in culture; conditions: NRS123
Description: Antimicrobial activity against methicillin-resistant Staphylococcus aureus NRS123 by broth liquid microdilution method

[19] = test system: Staphylococcus aureus; test: microbe, parasite or virus in culture; conditions: NRS384
Description: Antimicrobial activity against methicillin-resistant Staphylococcus aureus NRS384 by broth liquid microdilution method

[20] = test system: Staphylococcus aureus; test: microbe, parasite or virus in culture; conditions: NRS 385
Description: Antimicrobial activity against methicillin-resistant Staphylococcus aureus NRS 385 by broth liquid microdilution method

[21] = test system: Staphylococcus aureus; test: microbe, parasite or virus in culture; conditions: NRS 386
Description: Antimicrobial activity against methicillin-resistant Staphylococcus aureus NRS 386 by broth liquid microdilution method

[22] = test system: Enterococcus faecalis; test: microbe, parasite or virus in culture; conditions: ATCC 51299
[23] = test system: Escherichia coli; test: Antimicrobial activity against Escherichia coli JW55031 harboring deltatolC mutant by broth liquid microdilution method; format: functional
[24] = test system: Escherichia coli; test: Antimicrobial activity against Escherichia coli BW25113 by broth liquid microdilution method; format: functional
[25] = test system: Staphylococcus aureus; test: Bactericidal activity against methicillin-resistant Staphylococcus aureus USA400 assessed as reduction in number of colony forming units at 5 times MIC incubated for 24 hrs by aliquots transfer to tryptic soy agar and grown for 18 to 20 hrs by Time-kill assay; format: functional, organism-based
[26] = test system: Staphylococcus aureus; test: Bactericidal activity against methicillin-resistant Staphylococcus aureus USA400 assessed as 3 log reduction in number of colony forming units at 5 times MIC incubated for 10 hrs by aliquots transfer to tryptic soy agar and grown for 18 to 20 hrs by Time-kill assay relative to control; format: functional; parameters: scale not given: the % may be the effect or the level left
[27] = test system: Caco-2; test: Cytotoxicity against human Caco2 cells assessed as reduction in cell viability at 64 ug/ml by MTS assay relative to control

C/C(=N\NC(=N)N)c1sc(-c2ccc(C#CCCN3CC(O)C3)cc2)nc1C
16 µg/mL: MBC [3] | MBC [4] | MBC [6] | MBC [7] | MBC [22]
8 µg/mL: MBC [1] | MBC [2] | MBC [17] | MBC [18] | MBC [21] | MIC [22]
55%: Activity [12]
31%: Activity [10]
99%: Activity [13]
active: Activity [11] Dose-dependent effect
72%: Activity [9]
Non-Toxic: Activity [14]
100%: Activity [8]
2 µg/mL: MIC [3]
32 µg/mL: MBC [5]
4 µg/mL: MIC [1] | MIC [2] | MIC [4] | MIC [5] | MIC [6] | MIC [7] | MBC [15] | MIC [15] | MBC [16] | MIC [16] | MIC [17] | MIC [18] | MBC [19] | MIC [19] | MBC [20] | MIC [20] | MIC [21]

C/C(=N\NC(=N)N)c1sc(-c2ccc(C#CCCn3ccnc3)cc2)nc1C
8 µg/mL: MBC [1] | MIC [5] | MIC [6] | MBC [16] | MIC [17] | MBC [18] | MIC [22]
16 µg/mL: MBC [2] | MIC [23] | MBC [3] | MBC [4] | MBC [6] | MBC [7] | MBC [15] | MBC [19] | MBC [20] | MBC [21]
active: Activity [25] | Activity [11] Dose-dependent effect
70%: Activity [27]
65%: Activity [10]
4 µg/mL: MIC [1] | MIC [2] | MIC [3] | MIC [4] | MIC [7] | MIC [15] | MIC [16] | MIC [18] | MIC [19] | MIC [20] | MIC [21]
99.9%: Activity [26]
32 µg/mL: MBC [5] | MBC [17] | MBC [22]
81%: Activity [9]
> 64 µg/mL: MIC [24]
